Measured values published in US11359180B2, “Method for producing myocardial cells using synthetic peptide” (Toagosei Co., Ltd., priority 2015, dated 2022).

Assays:
[1] = tested on: iPS cells of human origin (clone 201B7); assay: Expression of myocardial cell marker genes by fluorescent cytoimmunostaining; assay type: cell-based; conditions: sample 1 addition section, 16th day after start of main culture
Protocol: To check the state of expression of myocardial cell marker genes, cytoimmunostaining (fluorescent immunostaining) of proteins that are the gene products of myocardial marker genes was carried out on the cells in each of the test sections at the 16th day after the start of main culture. The expression of the following as myocardial marker genes was checked: myosin heavy chain (MHC), cardiac Troponin T (cTnT), tropomyosin (TM), and connexin 43 (Cx43).
First, the cells in each test section were subjected to a fixing treatment, a permeabilization treatment, and a blocking treatment. This fixing treatment, permeabilization treatment, and blocking treatment were carried out using a commercial kit (Image-iT Fixation/Permeabilization Kit, Life Technologies Corporation) in accordance with the manual provided with the kit.
Specifically, the culture medium was first removed from the culture vessel (12-well plate) for the cells in each test section on the 16th day after the start of the main culture (16th day after the addition of the myocardial cell differentiation-inducing synthetic peptide). The fixing treatment was performed by adding the fixative solution (Fixative Solution, contained 4 volume % formaldehyde in PBS (pH=7.3)) from the kit at 0.4 mL/well and holding at quiescence for 15 minutes at room temperature. This was followed by washing 3 times using the wash buffer (Wash Buffer, PBS, pH=7.4) from the kit at 0.5 mL/well.
A permeabilization treatment was then performed by adding the permeabilization solution (Permeabilization solution, contained 0.5 volume % Triton (registered trademark) X-100) from the kit at 0.5 mL/well and holding at quiescence for 15 minutes at room temperature. This was followed by washing three times with the wash buffer ([…]) from the kit.
After the cells in each well had been washed with PBS-T (PBS containing 0.25 volume % Triton (registered trademark) X-100), a blocking treatment was performed by adding the blocking solution (Blocking Solution, contained 3 weight/volume % (w/v %) BSA fraction V in DPBS (Dulbecco's PBS) (pH=7.4)) from the kit to each well and standing at quiescence overnight (about 18 hours) at 4° C.
After this blocking treatment, the primary antibody dilutions were added to each well followed by holding at quiescence for 2 hours at room temperature; the primary antibody dilutions were prepared by the dilution of the specified primary antibodies to a suitable antibody concentration using the blocking solution used in the blocking treatment.
The following primary antibodies were used as these primary antibodies: anti-myosin heavy chain antibody, anti-cardiac Troponin T antibody, anti-tropomyosin antibody, and anti-connexin 43 antibody. […]

[2] = tested on: iPS cells of human origin (clone 201B7); assay: Induction of myocardial cell differentiation: microscopic observation of beating cells; assay type: cell-based
Text: Pluripotent stem cells were induced to myocardial cells (production of myocardial cells) using the myocardial cell differentiation-inducing synthetic peptide obtained in Example 1 (sample 1). Specifically, pluripotent stem cells were induced to myocardial cells (production of myocardial cells) by using the myocardial cell differentiation-inducing synthetic peptide obtained in Example 1 (sample 1) in place of activin A in the method for inducing the differentiation of pluripotent stem cells into hepatocytes. The method described in Non Patent Literature 3 was adopted for the method for inducing the differentiation of pluripotent stem cells into hepatocytes. iPS cells of human origin (clone designation: 201B7, source: Takahashi K et al., Cell, 131, 861-872 (2007)) were used for the test cells. These iPS cells were supplied by the Center for iPS Cell Research and Application of Kyoto University.
The iPS cells, which were the test cells, were seeded to 12-well plates coated with an extracellular matrix (Geltrex (registered trademark) in the present case). Using mTeSR1 (STEMCELL Technologies Inc.) for the culture medium, they were cultured (precultured) in a CO2 incubator under conditions of 37° C. and 5% CO2 until an appropriate cell density (here, a confluence of about at least 60% and not more than 70%) had been reached. Medium exchange was performed each day during this preculture.
The sample 1 obtained in Example 1 was then added to the culture medium and cultivation was carried out (main culture). Thus, the pluripotent stem cells were induced to myocardial cells (production of myocardial cells) by using the myocardial cell differentiation-inducing synthetic peptide obtained in Example 1 (sample 1) in place of the activin A in the method for inducing the differentiation of pluripotent stem cells into hepatocytes that is given in Non Patent Literature 3. The following were set up in the present example: a test section (referred to below as the activin A addition section) that used the same method as the method given in Non Patent Literature 3 for inducing the differentiation of pluripotent stem cells to hepatocytes using activin A; a test section (referred to below as the sample 1 addition section) that used the myocardial cell differentiation-inducing synthetic peptide of sample 1 in place of the activin A in the activin A addition section; and a control section to which neither the activin A nor the myocardial cell differentiation-inducing synthetic peptide was added. The specifics are given below. The culture conditions in this main culture are given schematically in FIG. 1.
(§1) First, the culture medium was exchanged to base medium 1 in the activin A addition section, the sample 1 addition section, and the control section. In the activin A addition section, activin A (R&D Systems, Inc., Cat. No. 338-AC-D50) was added to the culture vessel (i.e., to the base medium 1) in a quantity that provided an activin A concentration in the culture medium of 100 ng/mL. […]
as §1, with “After this cultivation for 2 days (i.e., the 2nd day after the start of the main culture), the” for “First, the”, “medium 2” for “medium 1”, “A” for “A (R&D Systems, Inc., Cat. No. 338-AC-D50)”, “medium 2)” for “medium 1)”

Row | Molecule | expression of cardiac Troponin T in comparison to control section ([1]; FIG. 2) | expression of myosin heavy chain in comparison to control section ([1]; FIG. 2) | expression of connexin 43 in comparison to control section ([1]; FIG. 3) | expression of tropomyosin in comparison to control section ([1]; FIG. 3) | number of beating cells present (abundance ratio) compared to 9th day ([2]; sample 1 addition section, 8 μM, 10th day after start of main culture) | number of beating cells ([2]; sample 1 addition section, 8 μM, 17th day after start of main culture, 12-well plate) | number of beating cells (abundance ratio), average ([2]; sample 1 addition section, repeated tests, 17th day after start of main culture) | probability that at least 1 beating cell was present per 1 well ([2]; sample 1 addition section, tests independently repeated a plurality of times, 12-well plate) | presence of beating cells ([2]; activin A addition section, 100 ng/mL, daily observation during main culture)
1 | LLLLLLVGLTAPAGKKRTLRKNDRKKR [sample 1] | substantially increased | substantially increased | substantially increased | substantially increased | had increased | approximately 38 beating cells/well | about 40 per 1 well of the 12-well plate | at least 95% | 
2 | activin A: peptide having approximately 140 amino acid residues (R&D Systems, Cat. No. 338-AC-D50), used in the hepatocyte differentiation-inducing method (protein, UniProt P08476 311-426, looked up, Inhibin beta A chain, peptide having approximately 140 amino acid residues (R&D Systems, Cat. No. 338-AC-D50), used in the hepatocyte differentiation-inducing method) Inhibin beta A chain: GLECDGKVNICCKKQFFVSFKDIGWNDWIIAPSGYHANYCEGECPSHIAGTSGSSLSFHSTVINHYRMRGHSPFANLKSCCVPTKLRPMSMLYYDDGQNIIKKDIQNMIVEECGCS |  |  |  |  |  |  |  |  | could not be confirmed
